Measurements: patent publication US20110171291A1, “PATHOLOGICALLY-ACTIVATED THERAPEUTICS” (Sanford-Burnham Medical Research Institute, priority 2010, published 2011)

Key:
[1] = test system: AMPA/KA-type glutamate receptor; assay: Primary screen of the LOPAC 1280 library: Fluo-4 NW calcium entry induced by kainate in cultured cerebrocortical neurons; format: cell-based; settings: three separate screens; 200 μM KA
Procedure: FIGS. 19a and 19b show the fluorescence response indicating calcium ion entry induced by Kainate (KA) at AMPA-type glutamate receptor channels in cultured neurons. Fluorescent dye loading is accomplished by adding Fluo-4 NW to cells at 37° C. for 20 min and at RT (room temperature) for 10 min. The cells are incubated with compounds to be screened (generally 1 to 10 μM in 1% DMSO) for 2 min, followed by incubation with 200 μM kainate (KA) for 10 min (20 μM KA is used for the second, lower concentration of agonist—not shown here). […] The Z-factor, a statistical indication of the robustness of a high-throughput screen, fluctuated between 0.54-0.73 through the time course. This range of Z-factors is more than adequate for HTS (a value of Z≧0.5 generally indicates a robust screen).
The disclosed methods screen for uncompetitive drugs against a number of targets. […] Primary neurons or cell lines are used that contain (or are genetically engineered to contain) a target molecule on their surface, such as the AMPA/kainate-type glutamate receptors with unedited GluR2 subunits or other molecules that result in intracellular Ca^2+ signaling, such as G-protein-coupled receptors. […] Screening (by quantifying the Ca^2+ response) with two concentrations of agonist for the target, a low concentration and a higher concentration, against chemicals in the library administered at a single micromolar concentration. For these AMPA receptors, kainate can be used as the agonist for HTS because the responses are less desensitizing than those to AMPA. The agonist results in an increase in intracellular Ca^2+ that can be monitored by HTS using the Ca^2+ indicator dye fluo-4 NW.
Using cerebrocortical neurons and calcium-sensitive dyes, as described above, conditions have been optimized for screening for AMPA/Kainate-receptor antagonists. For this purpose, the following experimental parameters were varied: cell density, composition of culture medium, length of cultures, type of calcium-sensitive dye, and condition (temperature and length) of dye loading. The following protocol was established. […]

NMDA receptor = assay: Excitatory postsynaptic currents (EPSCs) recorded from the hippocampal autapse preparation; format: cell-based; settings: 1 μM
Text: Note that the initial component of the EPSC is mediated by AMPA-sensitive glutamate receptors, whereas a delayed component is mediated by NMDA receptors. […] See Chen, H.-S. V. et al. Neuroscience 86, 1121-1132 (1998).

[2] = test system: brain damage after the ischaemic event; settings: given up to 2 hours after the ischaemic event; cited from earlier work
rhodanese = assay: PDI chaperone activity: aggregation of guanidinium-denatured rhodanese; format: biochemical; settings: 1 μM recombinant PDI
Procedure: To determine whether S-nitrosylation affects PDI function, PDI chaperone and isomerase activities were monitored. Chaperone activity was assessed in a standard assay by measuring the degree of aggregation of rhodanese induced by guanidinium, as previously described9. Rhodanese aggregation occurred in a time-dependent manner, and incubation with recombinant wild-type PDI, but not dominantnegative PDI (produced by the N-terminal and C-terminal mutant) (Ko, H. S., et al. J. Biol. Chem., 277, 35386-35392, (2002)), suppressed this aggregation by about 80%. […] Thus, S-nitrosylation inhibited the functional activities of PDI. […] Therefore, the inhibitory effect of PDI on the aggregation of synphilin-1 was investigated, as observed in Lewy body inclusions in the brains of PD patients. First, it was tested if PDI could prevent the ubiquitinated, Lewy-body-like inclusions that are formed in the cytosol after synphilin-1 overexpression in cultured SH-SY5Y cells (See FIG. 2c). […]
Chaperone activity of PDI was measured by analyzing the renaturation (refolding) of denatured rhodanese in the presence of 1 μM PDI or its mutant form (Vuori, K., et al. J. Biol. Chem, 267, 7211-7214, (1992); Horibe, T. et al. J. Biol. Chem. 279, 4604-4611 (2004); Martin, J. et al. Nature 352, 36-42 (1991)). […] The aggregation of denatured rhodanese was monitored by the increase in absorbance at 320 nm. […]

Question: For `N#Cc1cc2[nH]c(=O)c(=O)[nH]c2cc1[N+](=O)[O-]` [CNQX], which “scored as hit (significantly blocked calcium entry induced by KA)” value [1] is on record?
Answer: positively scored

Question: Which “scored as hit (significantly blocked calcium entry induced by KA)” value [1] does the source give for `O=[N+]([O-])c1cc2nc(O)c(O)nc2cc1[N+](=O)[O-]` [DNQX] here?
Answer: scored positively in all three screens

Question: With `C[C@]12N[C@H](Cc3ccccc31)c1ccccc12` [MK-801, dizocilpine] as the compound, how does the “block of the NMDA receptor-mediated component of the EPSC” value (NMDA receptor) read?
Answer: complete blockade

Question: For `NS(=O)(=O)c1cccc2c1c([N+](=O)[O-])cc1nc(O)c(O)nc12` [NBQX], which “scored as hit (significantly blocked calcium entry induced by KA)” value [1] is on record?
Answer: scored positively in all three screens

Question: Which “block of the NMDA receptor-mediated component of the EPSC” value (NMDA receptor) does the source give for `CC12CC3CC(C)(C1)CC(N)(C3)C2` [memantine] here?
Answer: 10-15%

Question: And the “reduction of brain damage” value [2]?
Answer: approximately 50%

Question: For “wild-type PDI: recombinant wild-type protein-disulphide isomerase”, which “suppression of rhodanese aggregation” value (rhodanese) is on record?
Answer: about 80%
